Measured values reported in US10294202B2, “Pyrrolidinones as herbicides” (FMC Corporation, priority 2013, dated 2019).

Columns and labels:
crabgrass, large = experiment: Test C pre-/postemergence herbicide test; format: in vivo, Digitaria sanguinalis; conditions: Preemergence; for Crabgrass, Large plant response rating: 31 g ai/ha
Outline: (§1)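 Response scores range from 0, meaning no effect, to 100, meaning complete control, assigned visually by comparison with controls roughly two weeks (13 to 15 days) after spraying. Applications were made preemergence to seeded loam–sand soil and postemergence to 1- to 4-leaf plants.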

wheat = experiment: Test A pre-/postemergence herbicide test; format: in vivo, Triticum aestivum; conditions: for Wheat plant response rating: Preemergence, visual rating on 0 to 100 scale (0 no effect, 100 complete control)
Outline: (§2)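 Scoring was visual, relative to untreated controls, on a 0–100 scale after about 10 greenhouse days. Preemergence treatment used a directed soil spray over seeded loam/sand; postemergence treatment targeted one- to two-leaf plants of 2–10 cm.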

morningglory = experiment: Test C pre-/postemergence herbicide test; format: in vivo, Ipomoea coccinea; conditions: Preemergence
Outline: as §1

pigweed = experiment: Test A pre-/postemergence herbicide test; format: in vivo, Amaranthus retroflexus; conditions: for Pigweed plant response rating: Preemergence, visual rating on 0 to 100 scale (0 no effect, 100 complete control)
Outline: as §2

ryegrass, Italian = experiment: Test C pre-/postemergence herbicide test; format: in vivo, Lolium multiflorum; conditions: Preemergence
Outline: as §1

barnyardgrass = experiment: Test A pre-/postemergence herbicide test; format: in vivo, Echinochloa crus-galli; conditions: for Barnyardgrass plant response rating: Preemergence, visual rating on 0 to 100 scale (0 no effect, 100 complete control)
Outline: as §2

wheat (winter wheat) = experiment: Test C pre-/postemergence herbicide test; format: in vivo, Triticum aestivum; conditions: Preemergence
Outline: as §1

corn [1] = experiment: Test C pre-/postemergence herbicide test; format: in vivo, Zea mays; conditions: Preemergence; for Corn plant response rating: 31 g ai/ha
Outline: as §1

soybean = experiment: Test C pre-/postemergence herbicide test; format: in vivo, Glycine max; conditions: Preemergence
Outline: as §1

corn [2] = experiment: Test A pre-/postemergence herbicide test; format: in vivo, Zea mays; conditions: for Corn plant response rating: Preemergence, visual rating on 0 to 100 scale (0 no effect, 100 complete control)
Outline: as §2

galium = experiment: Test C pre-/postemergence herbicide test; format: in vivo, Galium aparine; conditions: Preemergence; for Galium plant response rating: 31 g ai/ha
Outline: as §1

johnsongrass = experiment: Test C pre-/postemergence herbicide test; format: in vivo, Sorghum halepense; conditions: Preemergence
Outline: as §1

foxtail, giant = experiment: Test C pre-/postemergence herbicide test; format: in vivo, Setaria faberii; conditions: Preemergence; for Foxtail, Giant plant response rating: 31 g ai/ha
Outline: as §1

[3] = scale 0 to 100 (0 no effect, 100 complete control)
[4] = 125 g ai/ha, scale 0 to 100 (0 no effect, 100 complete control)
[5] = 250 g ai/ha, scale 0 to 100 (0 no effect, 100 complete control)
[6] = Postemergence, 125 g ai/ha, 0 to 100 scale, 0 no effect, 100 complete control
[7] = Postemergence, 500 g ai/ha, 0 to 100 scale (0 no effect, 100 complete control)
[8] = preemergence, 500 g ai/ha, 0 to 100 scale
[9] = preemergence, 500 g ai/ha, 0 to 100 scale (0 no effect, 100 complete control)

`O=C1NCC(c2ccc(Cl)c(F)c2)C1C(=O)Nc1ccccc1F` (stereo not drawn) [Compound 53] was tested, and the “Crabgrass, Large plant response rating” value (crabgrass, large; [3]) was 80, the “Plant response rating, Crabgrass, Large” value (crabgrass, large; 62 g ai/ha, scale 0 to 100) was 85 and the “Plant response rating, Crabgrass, Large” value (crabgrass, large; [4]) was 90. The “Plant response rating, Crabgrass, Large” value (crabgrass, large; [5]) was 90, the “Plant response rating, Wheat” value (wheat; [6]) was 0 and the “Plant response rating, Wheat” value (wheat; [7]) was 0. For the same compound, the “Wheat plant response rating” value (wheat; 125 g ai/ha) was 0, the “Plant response rating, Wheat” value (wheat; [8]) was 20 and the “Plant response rating, Morningglory” value (morningglory; 62 g ai/ha, scale 0 to 100) was 0. The “Plant response rating, Morningglory” value (morningglory; [4]) was 0, the “Plant response rating, Pigweed” value (pigweed; [6]) was 0 and the “Plant response rating, Pigweed” value (pigweed; [7]) was 0. For the same compound, the “Pigweed plant response rating” value (pigweed; 125 g ai/ha) was 0, the “Plant response rating, Pigweed” value (pigweed; [8]) was 0 and the “Plant response rating, Ryegrass, Italian” value (ryegrass, Italian; 62 g ai/ha, scale 0 to 100) was 0. For the same compound, the “Plant response rating, Ryegrass, Italian” value (ryegrass, Italian; [4]) was 0, the “Plant response rating, Barnyardgrass” value (barnyardgrass; [6]) was 30 and the “Plant response rating, Barnyardgrass” value (barnyardgrass; [7]) was 80. For the same compound, the “Barnyardgrass plant response rating” value (barnyardgrass; 125 g ai/ha) was 80, the “Plant response rating, Barnyardgrass” value (barnyardgrass; [9]) was 90 and the “Plant response rating, Wheat” value (wheat (winter wheat); 62 g ai/ha, scale 0 to 100) was 0. For the same compound, the “Plant response rating, Wheat” value (wheat (winter wheat); [4]) was 0, the “Corn plant response rating” value (corn [1]; [3]) was 10 and the “Plant response rating, Corn” value (corn [1]; 62 g ai/ha, scale 0 to 100) was 20. The “Plant response rating, Corn” value (corn [1]; [4]) was 20, the “Plant response rating, Corn” value (corn [1]; [5]) was 20 and the “Plant response rating, Soybean” value (soybean; 62 g ai/ha, scale 0 to 100) was 15. For the same compound, the “Plant response rating, Soybean” value (soybean; [4]) was 15, the “Plant response rating, Corn” value (corn [2]; [6]) was 0 and the “Plant response rating, Corn” value (corn [2]; [7]) was 0. The “Corn plant response rating” value (corn [2]; 125 g ai/ha) was 0, the “Plant response rating, Corn” value (corn [2]; [8]) was 0 and the “Galium plant response rating” value (galium; [3]) was 0. The “Plant response rating, Galium” value (galium; 62 g ai/ha, scale 0 to 100) was 0, the “Plant response rating, Galium” value (galium; [4]) was 0 and the “Plant response rating, Galium” value (galium; [5]) was 70. For the same compound, the “Plant response rating, Johnsongrass” value (johnsongrass; 62 g ai/ha, scale 0 to 100) was 0, the “Plant response rating, Johnsongrass” value (johnsongrass; [4]) was 0 and the “Foxtail, Giant plant response rating” value (foxtail, giant; [3]) was 40. For the same compound, the “Plant response rating, Foxtail, Giant” value (foxtail, giant; 62 g ai/ha, scale 0 to 100) was 65, the “Plant response rating, Foxtail, Giant” value (foxtail, giant; [4]) was 65 and the “Plant response rating, Foxtail, Giant” value (foxtail, giant; [5]) was 85.

In the case of `O=C1NCC(c2ccc(F)c(Cl)c2)C1C(=O)Nc1cccc(F)c1F` (stereo not drawn) [Compound 59], the “Crabgrass, Large plant response rating” value (crabgrass, large; [3]) is reported as 85, the “Plant response rating, Crabgrass, Large” value (crabgrass, large; 62 g ai/ha, scale 0 to 100) is reported as 85 and the “Plant response rating, Crabgrass, Large” value (crabgrass, large; [4]) is reported as 90. The “Plant response rating, Crabgrass, Large” value (crabgrass, large; [5]) was 100, the “Plant response rating, Wheat” value (wheat; [6]) was 0 and the “Plant response rating, Wheat” value (wheat; [7]) was 60. For the same compound, the “Wheat plant response rating” value (wheat; 125 g ai/ha) was 0, the “Plant response rating, Wheat” value (wheat; [8]) was 0 and the “Plant response rating, Morningglory” value (morningglory; 62 g ai/ha, scale 0 to 100) was 0. For the same compound, the “Plant response rating, Morningglory” value (morningglory; [4]) was 15, the “Plant response rating, Pigweed” value (pigweed; [6]) was 0 and the “Plant response rating, Pigweed” value (pigweed; [7]) was 40. The “Pigweed plant response rating” value (pigweed; 125 g ai/ha) was 0, the “Plant response rating, Pigweed” value (pigweed; [8]) was 0 and the “Plant response rating, Ryegrass, Italian” value (ryegrass, Italian; 62 g ai/ha, scale 0 to 100) was 0. The “Plant response rating, Ryegrass, Italian” value (ryegrass, Italian; [4]) was 0, the “Plant response rating, Barnyardgrass” value (barnyardgrass; [6]) was 70 and the “Plant response rating, Barnyardgrass” value (barnyardgrass; [7]) was 90. The “Barnyardgrass plant response rating” value (barnyardgrass; 125 g ai/ha) was 80, the “Plant response rating, Barnyardgrass” value (barnyardgrass; [9]) was 90 and the “Plant response rating, Wheat” value (wheat (winter wheat); 62 g ai/ha, scale 0 to 100) was 0. The “Plant response rating, Wheat” value (wheat (winter wheat); [4]) was 0, the “Corn plant response rating” value (corn [1]; [3]) was 0 and the “Plant response rating, Corn” value (corn [1]; 62 g ai/ha, scale 0 to 100) was 10. For the same compound, the “Plant response rating, Corn” value (corn [1]; [4]) was 10, the “Plant response rating, Corn” value (corn [1]; [5]) was 45 and the “Plant response rating, Soybean” value (soybean; 62 g ai/ha, scale 0 to 100) was 15. For the same compound, the “Plant response rating, Soybean” value (soybean; [4]) was 20, the “Plant response rating, Corn” value (corn [2]; [6]) was 0 and the “Plant response rating, Corn” value (corn [2]; [7]) was 30. For the same compound, the “Corn plant response rating” value (corn [2]; 125 g ai/ha) was 0, the “Plant response rating, Corn” value (corn [2]; [8]) was 0 and the “Galium plant response rating” value (galium; [3]) was 0. The “Plant response rating, Galium” value (galium; 62 g ai/ha, scale 0 to 100) was 5, the “Plant response rating, Galium” value (galium; [4]) was 30 and the “Plant response rating, Galium” value (galium; [5]) was 85. For the same compound, the “Plant response rating, Johnsongrass” value (johnsongrass; 62 g ai/ha, scale 0 to 100) was 0, the “Plant response rating, Johnsongrass” value (johnsongrass; [4]) was 0 and the “Foxtail, Giant plant response rating” value (foxtail, giant; [3]) was 50. For the same compound, the “Plant response rating, Foxtail, Giant” value (foxtail, giant; 62 g ai/ha, scale 0 to 100) was 85, the “Plant response rating, Foxtail, Giant” value (foxtail, giant; [4]) was 85 and the “Plant response rating, Foxtail, Giant” value (foxtail, giant; [5]) was 90.
